US8247211B2, “Glycopeptide antibiotics” (American Cyanamid Company, priority 2001, dated 2012)
Converted amounts (≈) assume the structure as drawn.

Tests used:
[1] = tested on: Staphylococcus aureus-SMITH (GC 4543); assay: Acute lethal infection in mice (ED50); format: in vivo; settings: female CD-1 mice, intraperitoneal challenge, intravenous dose 30 min. after infection, 7 day survival ratios
Outline: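 Groups of five female CD-1 mice per dose got intravenous antibiotic in saline or 5% dextrose half an hour after intraperitoneal infection sufficient to kill controls within 24-48 hr. Seven-day survival data from three experiments were combined to derive ED50.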

[2] = Anatomic pathology (heart and kidney histopathology) in mice; format: in vivo, CD-1 mice; settings: 20 mg/kg intravenously daily for 9 days, microscopic histopathology on day 10
Description: 20-day-old CD-1 mice were divided into a vehicle control group (5 mice) and a treatment group (5 mice). Samples of glycopeptide antibiotics were administered at 20 mg/kg intravenously daily for 9 days.
Samples of tissues from necropsied mice were formalin-fixed, paraffin-embedded, sectioned, stained with hematoxylin and eosin, and examined microscopically. Histopathologic findings were recorded. These findings were subjectively graded on a scale corresponding to slight, mild, moderate, marked and severe as compared to untreated controls.

Staphylococcus sp. = assay: In vitro antibacterial evaluation: minimum inhibitory concentration (MIC), broth dilution method; format: cell-based; settings: broth dilution, 18 hours at 35° C.
Outline: (§1)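 Following NCCLS approved standard M7-A2, compounds are serially diluted from 64 to 0.06 μg/mL in Muller-Hinton II […] and inoculated at 5×10^5 CFU/mL; the MIC is the minimum concentration at which growth is inhibited.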

Escherichia coli = assay: as above; format: cell-based
Outline: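 Using Muller-Hinton II […] and an inoculum of 5×10^5 CFU/mL, antibiotic dilutions from 64 down to 0.06 μg/mL were tested following NCCLS M7-A2. The MIC is the lowest concentration inhibiting growth, including in methicillin-, penicillin- or vancomycin-resistant clinical isolates.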

Streptococcus sp. = assay: as above; format: cell-based
Outline: as §1

Enterococcus sp. = assay: as above; format: cell-based
Outline: as §1

## CN=C1N(C)CC(C(O)C2NC(=O)C(Cc3ccc(OC4OC(CO)C(OC5OC(CO)C(O)C(O)C5O)C(O)C4O)cc3)NC(=O)C(C(C)c3ccccc3)NC(=O)CNC(=O)C(CO)NC(=O)C(C(O)C3CN(C)C(=NC)N3C3OC(CO)C(O)C(O)C3O)NC2=O)N1C (stereo not drawn) [Example 64, Cyclo[glycyl-β-methylphenylalanyl-O-(4-O-hexopyranosylhexopyranosyl)tyrosyl-3-(1,3-dimethyl-2-(methylimino)imidazolidin-4-yl)seryl-3-[3-hexopyranosyl-1-methyl-2-(methylimino)imidazolidin-4-yl]-serylseryl]]
[1]
  median effective dose (ED50), Staphylococcus aureus-SMITH (GC 4543): >8
[2]
  Anatomical Pathology (Day 10), Heart: 0
  Anatomical Pathology (Day 10), Kidney: 0

## CC(c1ccccc1)C1NC(=O)CNC(=O)C(CO)NC(=O)C(C(O)C2CN(Cc3ccc(C(=O)O)cc3)C(=N)N2C2OC(CO)C(O)C(O)C2O)NC(=O)C(C(O)C2CNC(=N)N2)NC(=O)C(Cc2ccc(OC3OC(CO)C(OC4OC(CO)C(O)C(O)C4O)C(O)C3O)cc2)NC1=O (stereo not drawn) [Example 69, Cyclo[glycyl-β-methylphenylalanyl-O-(4-O-hexopyranosylhexopyranosyl)tyrosyl-3-(2-iminoimidazolidin-4-yl)seryl-3-[1-(4-carboxybenzyl)-2-imino-3-hexopyranosylimidazolidin-4-yl]-serylseryl]]
[1]
  median effective dose (ED50), Staphylococcus aureus-SMITH (GC 4543): >8
[2]
  Anatomical Pathology (Day 10), Heart: 0
  Anatomical Pathology (Day 10), Kidney: 0

## CN=C1N(C)CC(CC2NC(=O)C(Cc3ccc(OC4OC(CO)C(OC5OC(CO)C(O)C(O)C5O)C(O)C4O)cc3)NC(=O)C(C(C)c3ccccc3)NC(=O)CNC(=O)C(CO)NC(=O)C(CC3CN(C)C(=NC)N3C3OC(CO)C(O)C(O)C3O)NC2=O)N1C (centres unmarked) [Example 74]
[1]
  median effective dose (ED50), Staphylococcus aureus-SMITH (GC 4543): >8
[2]
  Anatomical Pathology (Day 10), Heart: 0
  Anatomical Pathology (Day 10), Kidney: 0

## CN=C1N(C)CC(C(O)C2NC(=O)C(Cc3ccc(OC4OC(CO)C(OC5OC6COC7(OC6C(O)C5O)C5CC6CC(C5)CC7C6)C(O)C4O)cc3)NC(=O)C(C(C)c3ccccc3)NC(=O)CNC(=O)C(CO)NC(=O)C(C(O)C3CN(C)C(=NC)N3C3OC(CO)C(O)C(O)C3O)NC2=O)N1C (centres unmarked) [Example 81]
[1]
  median effective dose (ED50), Staphylococcus aureus-SMITH (GC 4543): >8
[2]
  Anatomical Pathology (Day 10), Heart: 0
  Anatomical Pathology (Day 10), Kidney: 0
Staphylococcus sp.
  MIC Coagulase Negative Staphylococcus (GC 4547): >128 µg/mL
  MIC Coagulase Negative Staphylococcus (GC 4548): >128 µg/mL
  MIC Coagulase Negative Staphylococcus (GC 4549): >128 µg/mL
  MIC Coagulase Negative Staphylococcus (GC 4551): >128 µg/mL
  MIC Coagulase Negative Staphylococcus (GC 6257): >128 µg/mL
  MIC Staphylococcus aureus (ATCC 29213): >128 µg/mL
  MIC Staphylococcus aureus (GC 1131): >128 µg/mL
  MIC Staphylococcus aureus (GC 3051): >128 µg/mL
  MIC Staphylococcus aureus (GC 3053): >128 µg/mL
  MIC Staphylococcus aureus (GC 4541): >128 µg/mL
  MIC Staphylococcus aureus (GC 4542): >128 µg/mL
  MIC Staphylococcus aureus (GC 4544): >128 µg/mL
  MIC Staphylococcus aureus (GC 4545): >128 µg/mL
  MIC Staphylococcus aureus SMITH (GC 4543): >128 µg/mL

## CCCCCCCN1CC(C(O)C2NC(=O)C(C(O)C3CNC(=N)N3)NC(=O)C(Cc3ccc(OC4OC(CO)C(OC5OC(CO)C(O)C(O)C5O)C(O)C4O)cc3)NC(=O)C(C(C)c3ccccc3)NC(=O)CNC(=O)C(CO)NC2=O)N(C2OC(CO)C(O)C(O)C2O)C1=N (stereo not drawn) [Example 71, Cyclo[glycyl-β-methylphenylalanyl-O-(4-O-hexopyranosylhexopyranosyl]tyrosyl-3-(2-iminoimidazolidin-4-yl)seryl-3-[1-heptyl-3-hexopyranosyl-2-iminoimidazolidin-4-yl]serylseryl]]
[1]
  median effective dose (ED50), Staphylococcus aureus-SMITH (GC 4543): >8
[2]
  Anatomical Pathology (Day 10), Heart: 0
  Anatomical Pathology (Day 10), Kidney: 0

## CC(c1ccccc1)C1NC(=O)CNC(=O)C(CO)NC(=O)C(CC2CN(Cc3ccccc3)C(=N)N2C2OC(CO)C(O)C(O)C2O)NC(=O)C(CC2CNC(=N)N2)NC(=O)C(Cc2ccc(OC3OC(CO)C(OC4OC5COC6(OC5C(O)C4O)C4CC5CC(C4)CC6C5)C(O)C3O)cc2)NC1=O (stereo not drawn) [Example 80, Cyclo[3-(2-iminoimidazolidin-4-yl)alanyl-3-(1-benzyl-3-hexopyranosyl-2-iminoimidazolidin-4-yl)alanylserylglycyl-β-methylphenylalanyl-O-[4-O-[4,6-O-(2-adamantylidene)hexopyranosyl]hexopyranosyl]tyrosyl]]
[1]
  median effective dose (ED50), Staphylococcus aureus-SMITH (GC 4543): >8
Escherichia coli; strain ATCC 25922
  MIC Escherichia coli (ATCC 25922): >64 µg/mL
Escherichia coli; strain GC 4559
  MIC Escherichia coli (GC 4559): >64 µg/mL
Escherichia coli; strain GC 4560
  MIC Escherichia coli (GC 4560): 8 µg/mL (≈ 5.38 µM)
Streptococcus sp.; Streptococcus agalactiae (GC 4564), broth dilution, 18 hours at 35° C.
  MIC Streptococcus agalactiae (GC 4564): 8 µg/mL (≈ 5.38 µM)
Streptococcus sp.; Streptococcus pneumoniae (ATCC 6301), broth dilution, 18 hours at 35° C.
  MIC Streptococcus pneumoniae (ATCC 6301): 8 µg/mL (≈ 5.38 µM)
Streptococcus sp.; Streptococcus pneumoniae (GC 1894), broth dilution, 18 hours at 35° C.
  MIC Streptococcus pneumoniae (GC 1894): 4 µg/mL (≈ 2.69 µM)
Streptococcus sp.; Streptococcus pneumoniae (GC 4565), broth dilution, 18 hours at 35° C.
  MIC Streptococcus pneumoniae (GC 4565): 16 µg/mL (≈ 10.8 µM)
Streptococcus sp.; Streptococcus pyogenes (GC 4563), broth dilution, 18 hours at 35° C.
  MIC Streptococcus pyogenes (GC 4563): 8 µg/mL (≈ 5.38 µM)
Streptococcus sp.; strain ATCC 6301
  MIC Streptococcus pneumoniae (ATCC 6301): 8 µg/mL (≈ 5.38 µM)
Streptococcus sp.; strain GC 1894
  MIC Streptococcus pneumoniae (GC 1894): 4 µg/mL (≈ 2.69 µM)
Streptococcus sp.; strain GC 4563
  MIC Streptococcus pyogenes (GC 4563): 8 µg/mL (≈ 5.38 µM)
Streptococcus sp.; strain GC 4564
  MIC Streptococcus agalactiae (GC 4564): 8 µg/mL (≈ 5.38 µM)
Streptococcus sp.; strain GC 4565
  MIC Streptococcus pneumoniae (GC 4565): 16 µg/mL (≈ 10.8 µM)
Enterococcus sp.; Enterococcus faecalis (GC 2242), broth dilution, 18 hours at 35° C.
  MIC Enterococcus faecalis (GC 2242): 32 µg/mL (≈ 21.5 µM)
Enterococcus sp.; Enterococcus faecalis (GC 2691), broth dilution, 18 hours at 35° C.
  MIC Enterococcus faecalis (GC 2691): 64 µg/mL (≈ 43.1 µM)
Enterococcus sp.; Enterococcus faecalis (GC 3059), broth dilution, 18 hours at 35° C.
  MIC Enterococcus faecalis (GC 3059): 64 µg/mL (≈ 43.1 µM)
Enterococcus sp.; strain ATCC 29212
  MIC Enterococcus faecalis (ATCC 29212): 64 µg/mL (≈ 43.1 µM)
Enterococcus sp.; strain GC 2242
  MIC Enterococcus faecalis (GC 2242): 32 µg/mL (≈ 21.5 µM)
Enterococcus sp.; strain GC 2243
  MIC Enterococcus faecium (GC 2243): 32 µg/mL (≈ 21.5 µM)
Enterococcus sp.; strain GC 2691
  MIC Enterococcus faecalis (GC 2691): 64 µg/mL (≈ 43.1 µM)
Enterococcus sp.; strain GC 3059
  MIC Enterococcus faecalis (GC 3059): 64 µg/mL (≈ 43.1 µM)
Enterococcus sp.; strain GC 4552
  MIC Enterococcus faecalis (GC 4552): 64 µg/mL (≈ 43.1 µM)
Enterococcus sp.; strain GC 4553
  MIC Enterococcus faecalis (GC 4553): 32 µg/mL (≈ 21.5 µM)
Enterococcus sp.; strain GC 4554
  MIC Enterococcus faecalis (GC 4554): 64 µg/mL (≈ 43.1 µM)
Enterococcus sp.; strain GC 4556
  MIC Enterococcus faecium (GC 4556): 64 µg/mL (≈ 43.1 µM)
Enterococcus sp.; strain GC 4557
  MIC Enterococcus faecium (GC 4557): 16 µg/mL (≈ 10.8 µM)
Enterococcus sp.; strain GC 4558
  MIC Enterococcus avium (GC 4558): 32 µg/mL (≈ 21.5 µM)
Enterococcus sp.; strain GC 6189
  MIC Enterococcus faecalis (GC 6189): 64 µg/mL (≈ 43.1 µM)
Staphylococcus sp.
  MIC Coagulase Negative Staphylococcus (GC 4547): 32 µg/mL (≈ 21.5 µM)
  MIC Coagulase Negative Staphylococcus (GC 4548): 32 µg/mL (≈ 21.5 µM)
  MIC Coagulase Negative Staphylococcus (GC 4549): 32 µg/mL (≈ 21.5 µM)
  MIC Coagulase Negative Staphylococcus (GC 4551): 32 µg/mL (≈ 21.5 µM)
  MIC Coagulase Negative Staphylococcus (GC 6257): 8 µg/mL (≈ 5.38 µM)
  MIC Staphylococcus aureus (ATCC 29213): 32 µg/mL (≈ 21.5 µM)
  MIC Staphylococcus aureus (GC 1131): 32 µg/mL (≈ 21.5 µM)
  MIC Staphylococcus aureus (GC 3051): 32 µg/mL (≈ 21.5 µM)
  MIC Staphylococcus aureus (GC 3053): 64 µg/mL (≈ 43.1 µM)
  MIC Staphylococcus aureus (GC 4541): 32 µg/mL (≈ 21.5 µM)
  MIC Staphylococcus aureus (GC 4542): 32 µg/mL (≈ 21.5 µM)
  MIC Staphylococcus aureus (GC 4544): 32 µg/mL (≈ 21.5 µM)
  MIC Staphylococcus aureus (GC 4545): 32 µg/mL (≈ 21.5 µM)
  MIC Staphylococcus aureus SMITH (GC 4543): 32 µg/mL (≈ 21.5 µM)
  MIC Staphylococcus haemolyticus (GC 4546): 32 µg/mL (≈ 21.5 µM)
Staphylococcus sp.; strain SMITH GC 4543
  MIC Staphylococcus aureus-SMITH (GC 4543): 32 µg/mL (≈ 21.5 µM)
